The values below come from patent publication US12209102B2, “Heterocyclic compounds and uses thereof” (Kumquat Biosciences Inc., priority 2022, dated 2025).

Assay [1] concerns the target T1, K-Ras G12D (Homo sapiens, UniProt P01116, G12D).
T1 construct: made in house; host or cells: E. coli BL21 (DE3)
Description: HTRF resonance energy transfer assay, K-Ras G12D / SOS1 interaction. It is filed as biochemical. To be noted: HTRF assay of Example 5; read-out: IC50 against K-Ras G12D. The procedure, abridged:
(§1)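 Buffer about 5 mM HEPES pH 7.4 with ~150 mM NaCl, ~1 mM DTT, 0.05% BSA, 0.0025% (v/v) Igepal. Protein constructs used at molarity matching the IC50 range studied (e.g. ~500 nM). FRET between tagged K-Ras and hSOS1 measured after short incubation.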
(In TR-FRET formats the signal depends on donor and acceptor labels being close together.)

The target in assay [2] is T2, K-Ras G12S (Homo sapiens, UniProt P01116, G12S).
T2 construct: made in house; host or cells: E. coli BL21 (DE3)
T2 sequence (P01116 1-188 isoform P01116-2 G12S): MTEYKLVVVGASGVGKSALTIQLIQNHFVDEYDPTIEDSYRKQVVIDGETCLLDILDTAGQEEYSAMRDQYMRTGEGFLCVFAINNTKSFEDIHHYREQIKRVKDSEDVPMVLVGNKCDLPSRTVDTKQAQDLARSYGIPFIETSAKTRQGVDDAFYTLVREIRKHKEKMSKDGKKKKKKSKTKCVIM
Nature of the assay: HTRF resonance energy transfer assay, K-Ras G12S / SOS1 interaction. To be noted: HTRF assay of Example 5; read-out: IC50 against K-Ras G12S. Type of assay: biochemical. The method, boiled down:
as §1

Assay [3] deals with T3, K-Ras G12V (Homo sapiens, UniProt P01116, G12V).
T3 construct: made in house; host or cells: E. coli BL21 (DE3)
T3 sequence (P01116 1-188 isoform P01116-2 G12V): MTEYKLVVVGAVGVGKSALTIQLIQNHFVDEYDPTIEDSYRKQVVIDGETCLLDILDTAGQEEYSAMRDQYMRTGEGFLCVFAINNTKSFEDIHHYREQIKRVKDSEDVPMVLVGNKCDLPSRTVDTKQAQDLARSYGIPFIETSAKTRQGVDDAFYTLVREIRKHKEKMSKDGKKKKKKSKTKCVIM
Nature of the assay: HTRF resonance energy transfer assay, K-Ras G12V / SOS1 interaction. As to conditions: HTRF assay of Example 5; read-out: IC50 against K-Ras G12V. It is filed as biochemical. The method, boiled down:
as §1

For assay [4], the target named is T4, K-Ras WT (Homo sapiens, UniProt P01116).
T4 construct: made in house; host or cells: E. coli BL21 (DE3)
T4 sequence (P01116 1-188 isoform P01116-2): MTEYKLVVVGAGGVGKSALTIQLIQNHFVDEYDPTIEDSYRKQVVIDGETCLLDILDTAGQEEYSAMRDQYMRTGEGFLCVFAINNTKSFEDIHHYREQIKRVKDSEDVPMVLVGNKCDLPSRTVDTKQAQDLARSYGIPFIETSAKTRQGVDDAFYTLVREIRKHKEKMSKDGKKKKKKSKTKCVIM
Description: HTRF resonance energy transfer assay, K-Ras WT / SOS1 interaction. It is filed as biochemical. To be noted: HTRF assay of Example 5; read-out: IC50 against K-Ras WT. The procedure, abridged: as §1

Assay [5] deals with A549 cells. Description: Ras cellular assay, growth of cells with K-Ras G12S mutation (CellTiter-Glo). Type of assay: cell-based. As to conditions: Homo sapiens, cell growth, Example 9, G12S mutation, read-out: IC50 against A549 cells. The method, boiled down: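 Growth inhibition IC50 values come from four-parameter fits of CellTiter-Glo luminescence, read about 6 days after compound addition. G12S-mutant A549 cells (e.g. 800/well, RPMI-1640 + 10% heat-inactivated FBS) were plated in tissue-culture-treated or ultra-low-attachment 384-well format. Dosing began the following day with serial dilutions, e.g. 10 points, 3-fold.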
(Cellular ATP, detected with luciferase, serves as a proxy for viable cell number.)

Assay [6] deals with SW620 cells. Description: Ras cellular assay, growth of cells with K-Ras G12V mutation (CellTiter-Glo). Type of assay: cell-based. As to conditions: Homo sapiens, SW-620; cell growth, Example 9, G12V mutation; read-out: IC50 against SW620 cells. The procedure, abridged:
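IC50 values came from a four-parameter fit of CellTiter-Glo viability, read roughly 6 days after dosing with e.g. a 10-point threefold dilution series. G12V-mutant SW620 cells (e.g. 800 per well) had been plated the previous day in RPMI-1640/10% heat-inactivated FBS, on tissue culture-treated or ultra-low attachment plates.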

T1 sequence (P01116 1-188 isoform P01116-2 G12D): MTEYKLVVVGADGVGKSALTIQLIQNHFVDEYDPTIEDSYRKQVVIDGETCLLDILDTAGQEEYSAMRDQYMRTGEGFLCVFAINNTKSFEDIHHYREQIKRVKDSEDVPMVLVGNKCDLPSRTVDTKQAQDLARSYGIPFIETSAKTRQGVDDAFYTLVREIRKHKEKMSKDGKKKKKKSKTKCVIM

One may read the IC50 as the concentration needed to halve the response being measured. On to `N#Cc1c(N)sc2c(F)ccc(-c3c(Cl)c4c5c(nc(OC[C@@]67CCCN6C[C@H](F)C7)nc5c3F)N(C3CCC(NC(=O)[C@@H]5N[C@H]5C5CC5)C3)CCO4)c12` (stereo partly drawn) [Compound 920, (2R,3S)—N-(3-(9-(2-amino-3-cyano-7-fluorobenzo[b]thiophen-4-yl)-8-chloro-10-fluoro-2-(((2R,7aS)-2-fluorotetrahydro-1H-pyrrolizin-7a(5H)-yl)methoxy)-5,6-dihydro-4H-[1,4]oxazepino[5,6,7-de]quinazolin-4-yl)cyclopentyl)-3-cyclopropylaziridine-2-carboxamide], for which the IC50 in assay [1] is under 0.1 µM; in assay [2], under 0.1 µM; in assay [3], under 0.1 µM; in assay [4], under 0.1 µM; in assay [5], under 5 µM; in assay [6] it was under 5 µM.

For the molecule `N#Cc1c(N)sc2c(F)ccc(-c3c(Cl)c4c5c(nc(OC[C@@]67CCCN6C[C@H](F)C7)nc5c3F)N(C3CCN(S(=O)(=O)C5CC5)C3)CCO4)c12` (stereo partly drawn) [Compound 922, 2-amino-4-(8-chloro-4-(1-(cyclopropylsulfonyl)pyrrolidin-3-yl)-10-fluoro-2-(((2R,7aS)-2—fluorotetrahydro-1H-pyrrolizin-7a(5H)-yl)methoxy)-5,6-dihydro-4H-[1,4]oxazepino[5,6,7-de]quinazolin-9-yl)-7-fluorobenzo[b]thiophene-3-carbonitrile], the IC50 in assay [1] was under 0.1 µM; in assay [2], under 0.1 µM; in assay [3], under 0.1 µM; in assay [4], under 0.1 µM; in assay [5], under 5 µM; in assay [6], under 5 µM.

Consider `C[C@H](Oc1nc2c3c(c(Cl)c(-c4ccc(F)c5sc(N)c(C#N)c45)c(F)c3n1)OCCN2C1CCOC1)[C@@H]1CCCN1C` (stereo partly drawn) [Compound 924, 2-amino-4-(8-chloro-10-fluoro-2-((S)-1-((S)-1-methylpyrrolidin-2-yl)ethoxy)-4-(tetrahydrofuran-3-yl)-5,6-dihydro-4H-[1,4]oxazepino[5,6,7-de]quinazolin-9-yl)-7-fluorobenzo[b]thiophene-3-carbonitrile], for which the IC50 was under 0.1 µM in assay [1]; under 0.1 µM in assay [2]; under 0.1 µM in assay [3]; under 0.1 µM in assay [4]; under 5 µM in assay [5]; under 5 µM in assay [6].

`CC1Oc2c(Cl)c(-c3ccc(F)c4sc(N)c(C#N)c34)c(F)c3nc(OC[C@@]45CCCN4C[C@H](F)C5)nc(c23)N(C2CC2)C1C` (stereo partly drawn) [Compound 929, 2-amino-4-(8-chloro-4-cyclopropyl-10-fluoro-2-(((2R,7aS)-2-fluorotetrahydro-1H-pyrrolizin-7a(5H)-yl)methoxy)-5,6-dimethyl-5,6-dihydro-4H-[1,4]oxazepino[5,6,7-de]quinazolin-9-yl)-7-fluorobenzo[b]thiophene-3-carbonitrile]: the IC50 was under 0.1 µM in assay [1]; under 0.1 µM in assay [2]; under 0.1 µM in assay [3]; under 0.1 µM in assay [4]; under 5 µM in assay [5]; under 5 µM in assay [6].

On to `COC1CN(C(=O)N2CCC(N3C[C@H](C)Oc4c(Cl)c(-c5ccc(F)c6sc(N)c(C#N)c56)c(F)c5nc(OC[C@@]67CCCN6C[C@H](F)C7)nc3c45)CC2)C1` [Compound 935, 2-amino-4-((6S)-8-chloro-10-fluoro-2-(((2R,7aS)-2-fluorotetrahydro-1H-pyrrolizin-7a(5H)-yl)methoxy)-4-(1-(3-methoxyazetidine-1-carbonyl)piperidin-4-yl)-6-methyl-5,6-dihydro-4H-[1,4]oxazepino[5,6,7-de]quinazolin-9-yl)-7-fluorobenzo[b]thiophene-3-carbonitrile], for which the IC50 in assay [1] is under 0.1 µM; in assay [2], under 0.1 µM; in assay [3], under 0.1 µM; in assay [4], under 0.1 µM; in assay [5], under 5 µM; in assay [6], under 5 µM.

As to `COCCN1CCC(N2CCOc3c(Cl)c(-c4ccc(F)c5sc(N)c(C#N)c45)c(F)c4nc(OC[C@@]56CCCN5C[C@H](F)C6)nc2c34)C1` (stereo partly drawn) [Compound 936, 2-amino-4-(8-chloro-10-fluoro-2-(((2R,7aS)-2-fluorotetrahydro-1H-pyrrolizin-7a(5H)-yl)methoxy)-4-(1-(2-methoxyethyl)pyrrolidin-3-yl)-5,6-dihydro-4H-[1,4]oxazepino[5,6,7-de]quinazolin-9-yl)-7-fluorobenzo[b]thiophene-3-carbonitrile], the IC50 in assay [1] was under 0.1 µM; in assay [2], under 0.1 µM; in assay [3], under 0.1 µM; in assay [4] it was under 0.1 µM; in assay [5] it was under 5 µM; in assay [6] it was under 5 µM.

Take `C#Cc1c(F)ccc2cc(O)cc(-c3nc4c5c(nc(OC[C@@]67CCCN6C[C@H](F)C7)nc5c3F)N(c3ccccc3)CCO4)c12` [Compound 948, 5-ethynyl-6-fluoro-4-(4-fluoro-2-(((2R,7aS)-2-fluorotetrahydro-1H-pyrrolizin-7a(5H)-yl)methoxy)-10-phenyl-9,10-dihydro-8H-7-oxa-1,3,6,10-tetraazacyclohepta[de]naphthalen-5-yl)naphthalen-2-ol]: the IC50 in assay [1] was under 0.1 µM; in assay [2], under 0.1 µM; in assay [3], under 0.1 µM; in assay [4] it was under 0.1 µM; in assay [5] it was under 5 µM; in assay [6] it was under 5 µM.

Turning to `N#Cc1c(N)sc2c(F)ccc(-c3c(Cl)c4c5c(nc(OC[C@@]67CCCN6C[C@H](F)C7)nc5c3F)N(C3CCN(C(=O)C(F)Cl)C3)CCO4)c12` (stereo partly drawn) [Compound 949, 2-amino-4-(8-chloro-4-(1-(2-chloro-2-fluoroacetyl)pyrrolidin-3-yl)-10-fluoro-2-(((2R,7aS)-2-fluorotetrahydro-1H-pyrrolizin-7a(5H)-yl)methoxy)-5,6-dihydro-4H-[1,4]oxazepino[5,6,7-de]quinazolin-9-yl)-7-fluorobenzo[b]thiophene-3-carbonitrile], the IC50 is under 0.1 µM in assay [1]; under 0.1 µM in assay [2]; under 0.1 µM in assay [3]; under 0.1 µM in assay [4]; under 5 µM in assay [5]; under 5 µM in assay [6].

As to `N#Cc1c(N)sc2c(F)ccc(-c3c(Cl)c4c5c(nc(OC[C@@]67CCCN6C[C@H](F)C7)nc5c3F)N(C3CC(F)(F)C3)CCO4)c12` [Compound 956, 2-amino-4-(8-chloro-4-(3,3-difluorocyclobutyl)-10-fluoro-2-(((2R,7aS)-2-fluorotetrahydro-1H-pyrrolizin-7a(5H)-yl)methoxy)-5,6-dihydro-4H-[1,4]oxazepino[5,6,7-de]quinazolin-9-yl)-7-fluorobenzo[b]thiophene-3-carbonitrile], the IC50 was under 0.1 µM in assay [1]; under 0.1 µM in assay [2]; under 0.1 µM in assay [3]; under 0.1 µM in assay [4]; under 5 µM in assay [5]; under 5 µM in assay [6].

With `C[C@H]1CN([C@@H]2CCOC2)c2nc(OC[C@@]34CCCN3C[C@H](F)C4)nc3c(F)c(-c4ccc(F)c5sc(N)c(C#N)c45)c(Cl)c(c23)O1` [Compound 958, 2-amino-4-((6S)-8-chloro-10-fluoro-2-(((2R,7aS)-2-fluorotetrahydro-1H-pyrrolizin-7a(5H)-yl)methoxy)-6-methyl-4-((R)-tetrahydrofuran-3-yl)-5,6-dihydro-4H-[1,4]oxazepino[5,6,7-de]quinazolin-9-yl)-7-fluorobenzo[b]thiophene-3-carbonitrile], the IC50 in assay [1] is under 0.1 µM; in assay [2], under 0.1 µM; in assay [3], under 0.1 µM; in assay [4], under 0.1 µM; in assay [5] it was under 5 µM; in assay [6], under 5 µM.

`N#Cc1c(N)sc2c(F)ccc(-c3c(Cl)c4c5c(nc(OC[C@@]67CCCN6C[C@H](F)C7)nc5c3F)N(CC3(C#N)CCC3)CCO4)c12` [Compound 963, 2-amino-4-(8-chloro-4-((1-cyanocyclobutyl)methyl)-10-fluoro-2-(((2R,7aS)-2-fluorotetrahydro-1H-pyrrolizin-7a(5H)-yl)methoxy)-5,6-dihydro-4H-[1,4]oxazepino[5,6,7-de]quinazolin-9-yl)-7-fluorobenzo[b]thiophene-3-carbonitrile]: the IC50 in assay [1] is under 0.1 µM; in assay [2] it was under 0.1 µM; in assay [3], under 0.1 µM; in assay [4], under 0.1 µM; in assay [5], under 5 µM; in assay [6], under 5 µM.
